The results in this text go back to PubChem BioAssay (NCI).

“And” between values parts separate entries of the source, which are not always exact repeats. Identical values can stand only once.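 Dose response: 5 concentrations. Exposure: 48 h. Format: 96-well plates. Endpoint: linear interpolation; highest concentration if not reached. The concentration for 50% growth inhibition is given as GI50. TGI marks complete inhibition of growth.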 A value given as a limit tells only on which side of the number the result lay.

Some test systems named below: SK-MEL-5 melanoma; MOLT-4 leukemia; HOP-62 NSCLC; HT29 colon; SN12C renal; NCI-H522 lung; SW-620 colon; SK-OV-3 ovarian; EKVX NSCLC; HL-60(TB) leukemia.
Holding throughout (assay): NCI tumour cell line growth inhibition, 48 h

For the molecule `O=C1c2ccccc2-c2c1c1cc3c(cc1c(=O)n2CCCCl)OCO3`, the GI50 with SK-MEL-5 melanoma is 33.5 µM; in the assay with MOLT-4 leukemia, 35 µM; in the assay with HOP-62 NSCLC, 12.3 µM; in the assay with HT29 colon, over 100 µM; in the assay with SN12C renal, 21.8 µM; with NCI-H522 lung, 16.8 µM. Also, the results for the GI50 in the assay with SW-620 colon, with SK-OV-3 ovarian and with EKVX NSCLC were 94.5 µM, over 100 µM and over 100 µM, respectively. Besides, the TGI was over 100 µM in the assay on SK-MEL-5 melanoma; over 100 µM in the assay on MOLT-4 leukemia; 28.6 µM with HOP-62 NSCLC; over 100 µM in the assay with HT29 colon; 77.6 µM in the assay with SN12C renal; over 100 µM with NCI-H522 lung. Besides, the TGI in the assay with SW-620 colon, with SK-OV-3 ovarian and with EKVX NSCLC was over 100 µM each time.

As for `CC1CCC[P+](Cc2ccccc2)(c2ccccc2)CC1` (stereo unspecified), the TGI with SK-MEL-5 melanoma is 35.9 µM; in the assay on MOLT-4 leukemia, over 100 µM; in the assay on HOP-62 NSCLC, over 100 µM; in the assay with SN12C renal, over 100 µM; in the assay with SW-620 colon it was over 100 µM; in the assay with SK-OV-3 ovarian it was over 100 µM. The TGI with HL-60(TB) leukemia was 37.8 µM; with EKVX NSCLC, over 100 µM.

As for `C[C@]12CCC(=O)C=C1CC[C@@H]1C2CC[C@]2(C)NC(=O)C(C#N)CC12` (stereo partly specified), the TGI in the assay on SK-MEL-5 melanoma, in the assay on MOLT-4 leukemia, in the assay on HOP-62 NSCLC, with HT29 colon, in the assay with SW-620 colon and in the assay on SK-OV-3 ovarian was over 100 µM in each case. In the assay with HL-60(TB) leukemia, this molecule yielded a TGI of over 100 µM.

For the molecule `Cn1cc(C2=C(c3ccc(OC[C@@H](O)CO)cc3)C(=O)NC2=O)c2ccccc21`, the GI50 in the assay with SK-MEL-5 melanoma, in the assay on MOLT-4 leukemia, in the assay with HOP-62 NSCLC, in the assay with HT29 colon, in the assay with SN12C renal and in the assay with NCI-H522 lung was over 25 µM in each case. Besides, the GI50 in the assay with SW-620 colon, with SK-OV-3 ovarian and with HL-60(TB) leukemia was over 25 µM in each case. Also, the TGI in the assay with SK-MEL-5 melanoma, in the assay on MOLT-4 leukemia, in the assay on HOP-62 NSCLC, with HT29 colon, in the assay with SN12C renal and in the assay with NCI-H522 lung was over 25 µM each time. For the same molecule, the TGI in the assay with SW-620 colon, in the assay with SK-OV-3 ovarian and in the assay with HL-60(TB) leukemia was over 25 µM each time.

In the case of `COc1cc2c(c(OC)c1OC)-c1ccc(NCc3ccccc3)c(=O)cc1[C@@H](NC(C)=O)CC2`, the GI50 was 0.422 µM in the assay with SK-MEL-5 melanoma; 0.489 µM in the assay on MOLT-4 leukemia; 0.413 µM with HOP-62 NSCLC; 0.373 µM in the assay with HT29 colon; 0.629 µM in the assay with SN12C renal; 0.327 µM in the assay on NCI-H522 lung. The figures for the GI50 with SW-620 colon, in the assay with SK-OV-3 ovarian and in the assay with HL-60(TB) leukemia were 0.391 µM, 0.294 µM and 0.353 µM, respectively. Also, the TGI is 1.94 µM with SK-MEL-5 melanoma; over 87.5 µM in the assay on MOLT-4 leukemia; 16.9 µM in the assay with HOP-62 NSCLC; 11.9 µM in the assay on HT29 colon; 45.3 µM in the assay with SN12C renal; 1.52 µM with NCI-H522 lung. The figures for the TGI with SW-620 colon and in the assay on SK-OV-3 ovarian were over 100 µM and 0.833 µM, respectively.

With `O=C(O)CCCc1ccc(N(CCCl)CCCl)cc1`, the GI50 is 20.3 µM and 110 µM in the assay with SK-MEL-5 melanoma; 0.999 µM in the assay on MOLT-4 leukemia; 19.9 µM and 173 µM with HT29 colon; 13.8 µM and 107 µM with SW-620 colon; 20.4 µM and 196 µM in the assay on SK-OV-3 ovarian; 0.979 µM in the assay on HL-60(TB) leukemia. In addition, the TGI is 39.5 µM and 210 µM and 225 µM in the assay on SK-MEL-5 melanoma; 12.7 µM and 104 µM in the assay on MOLT-4 leukemia; 59.3 µM and 486 µM and 518 µM with HT29 colon; 13.1 µM and 100 µM and 99.4 µM in the assay with NCI-H522 lung; 51.4 µM and 356 µM and 399 µM in the assay with SW-620 colon; 52 µM and 402 µM and 498 µM in the assay on SK-OV-3 ovarian. Also, the TGI in the assay on HL-60(TB) leukemia was 21.2 µM and 121 µM.

Regarding `CC1=CCCC(OC(N)=O)C1` (stereo unspecified), the TGI with SK-MEL-5 melanoma, in the assay on MOLT-4 leukemia, with HOP-62 NSCLC, with HT29 colon, with SN12C renal and in the assay on SW-620 colon was over 100 µM throughout. Besides, the TGI with SK-OV-3 ovarian, with HL-60(TB) leukemia and in the assay on EKVX NSCLC was over 100 µM in each case.

As to `COc1cc2c(cc1O)[C@H](Cc1ccc(Oc3cc(C[C@H]4c5cc(OC)c(OC)cc5CCN4C)ccc3OC)cc1)NCC2`, the TGI is 25.5 µM with MOLT-4 leukemia; 19.4 µM in the assay on HT29 colon; 31.1 µM with SN12C renal; 25.5 µM in the assay with SW-620 colon; 34.6 µM in the assay with HL-60(TB) leukemia.

Take `CC(C)(C)C1=NC(S)NC(CCC(=O)Nc2ccccc2[N+](=O)[O-])=C1` (stereo unspecified): the TGI with SK-MEL-5 melanoma, with MOLT-4 leukemia, in the assay on HOP-62 NSCLC, with HT29 colon, in the assay with SN12C renal and in the assay with SW-620 colon was over 100 µM throughout. For the same molecule, the TGI in the assay with SK-OV-3 ovarian, in the assay on HL-60(TB) leukemia and in the assay with EKVX NSCLC was over 100 µM in each case.

Take `CCCCCCCCCCCCCCC1OC(=O)c2ccccc21` (stereo unspecified): the TGI with MOLT-4 leukemia was over 100 µM; in the assay on HOP-62 NSCLC, over 100 µM; with HT29 colon it was over 100 µM; with SN12C renal, 75.9 µM; with SW-620 colon, over 100 µM; in the assay with SK-OV-3 ovarian, over 100 µM. Further, the TGI in the assay on HL-60(TB) leukemia is 40.7 µM; with EKVX NSCLC, over 100 µM.

`CCCCn1/c(=N/C(=S)N(C)C)ss/c1=N\C(=S)N(C)C`: the TGI in the assay on MOLT-4 leukemia, in the assay on HOP-62 NSCLC, in the assay on HT29 colon, with SN12C renal, with SW-620 colon and with SK-OV-3 ovarian was over 100 µM throughout. Further, the TGI in the assay on HL-60(TB) leukemia and in the assay on EKVX NSCLC was over 100 µM in each case.

With `COc1ccc(N=Cc2cc(OC)c(OC)c(OC)c2)cc1`, the TGI in the assay with SK-MEL-5 melanoma, in the assay on MOLT-4 leukemia, in the assay on HOP-62 NSCLC, in the assay with HT29 colon, in the assay on SN12C renal and in the assay on NCI-H522 lung was over 100 µM each time. In addition, the TGI was 30 µM with SW-620 colon, over 100 µM in the assay on SK-OV-3 ovarian and over 100 µM in the assay with EKVX NSCLC. Also, the GI50 with NCI-H522 lung was over 100 µM.

With `ClCc1ccccc1CSc1ncnc2nc[nH]c12`, the GI50 in the assay with SK-MEL-5 melanoma, in the assay with MOLT-4 leukemia, in the assay with HOP-62 NSCLC, in the assay with HT29 colon, with SN12C renal and with SW-620 colon was over 60 µM in each case. Further, the GI50 with SK-OV-3 ovarian and in the assay with EKVX NSCLC was over 60 µM in each case. The TGI in the assay with SK-MEL-5 melanoma, in the assay on MOLT-4 leukemia, with HOP-62 NSCLC, in the assay on HT29 colon, in the assay with SN12C renal and with SW-620 colon was over 60 µM throughout. In addition, the TGI in the assay on SK-OV-3 ovarian and with EKVX NSCLC was over 60 µM in each case.

For `CC(=O)c1ccc(N(/C=C/C(=O)C(F)(F)F)CC(=O)c2ccc(Cl)c(Cl)c2)cc1`, the GI50 is 17.7 µM with SK-MEL-5 melanoma; 4.18 µM with MOLT-4 leukemia; 15.3 µM with HOP-62 NSCLC; 24.4 µM with HT29 colon; 15 µM with SN12C renal; 13.2 µM with NCI-H522 lung. The GI50 with SW-620 colon is 18.3 µM; with SK-OV-3 ovarian, 18.1 µM; in the assay with EKVX NSCLC, 19.9 µM. In addition, the TGI was 32.4 µM with SK-MEL-5 melanoma; 27.2 µM in the assay with MOLT-4 leukemia; 28.7 µM with HOP-62 NSCLC; over 100 µM with HT29 colon; 28.8 µM in the assay with SN12C renal; 27.7 µM with NCI-H522 lung. For the same molecule, the TGI came out at 34.8 µM in the assay with SW-620 colon, 38.9 µM in the assay on SK-OV-3 ovarian and 38.5 µM with EKVX NSCLC.

Turning to `O=C(N/N=C/c1cccc(O)c1O)N/N=C/c1cccc(O)c1O`, the TGI in the assay with MOLT-4 leukemia is 46.8 µM; in the assay on HT29 colon, over 100 µM; in the assay with SN12C renal, over 100 µM; with SW-620 colon, over 100 µM; in the assay on SK-OV-3 ovarian, over 100 µM; with EKVX NSCLC, over 100 µM.

In the case of `O=C(O)Cc1c[nH]c2ccc(F)cc12`, the TGI in the assay with SK-MEL-5 melanoma, in the assay with MOLT-4 leukemia, in the assay with HOP-62 NSCLC, in the assay with HT29 colon, in the assay on SN12C renal and in the assay with SW-620 colon was over 100 µM in each case. Moreover, the TGI in the assay on SK-OV-3 ovarian, in the assay with HL-60(TB) leukemia and in the assay on EKVX NSCLC was over 100 µM in each case.

`C/C(=N\NC(N)=S)c1ccc(C)cc1C`: the TGI in the assay on SK-MEL-5 melanoma, in the assay on MOLT-4 leukemia, with HOP-62 NSCLC, in the assay with HT29 colon, with SN12C renal and in the assay with SW-620 colon was over 100 µM throughout. Moreover, the TGI with SK-OV-3 ovarian, in the assay on HL-60(TB) leukemia and in the assay with EKVX NSCLC was over 100 µM in each case.

For `O=c1[nH]c(=O)n(C2CC(O)C(CO)O2)cc1C#Cc1c(F)c(F)c(F)c(F)c1F` (stereo unspecified), the TGI with SK-MEL-5 melanoma, in the assay with MOLT-4 leukemia, with HOP-62 NSCLC, with HT29 colon, in the assay with SN12C renal and in the assay on SW-620 colon was over 100 µM in each case. The TGI with SK-OV-3 ovarian and with EKVX NSCLC was over 100 µM throughout.
